Measured values: the NIST ThermoML archive (doi:10.1021/je050316s)
Values joined by “and” are separate entries in the source; they are usually repeats but may differ in a detail not shown here. Equal entries are not always repeated. Numbers after ± are expanded uncertainties.

Experiments:
[1] = xn = mol fraction of the nth substance listed; conditions: 303.15 K, 101.33 kPa, Liquid
[2] = refractive index (Na D-line) (dimensionless); conditions: 101.33 kPa, Liquid, Standard Abbe refractometry
[3] = Liquid; for mass density: 101.33 kPa
[4] = activity coefficient (dimensionless); of the first substance listed, at infinite dilution; xn = mol fraction of the nth substance listed; conditions: Liquid, Differential ebulliometry, x1 = 0

NC1CCCCC1 [cyclohexylamine] + CCCCCCCCC
mass density ([1]; x1 = 0.0998): 718.79 ± 0.37 kg/m3
mass density ([1]; x1 = 0.1994): 728.47 ± 0.36 kg/m3
mass density ([1]; x1 = 0.301): 739.41 ± 0.35 kg/m3
mass density ([1]; x1 = 0.401): 751.43 ± 0.34 kg/m3
mass density ([1]; x1 = 0.4998): 764.51 ± 0.32 kg/m3
mass density ([1]; x1 = 0.6006): 779.38 ± 0.31 kg/m3
mass density ([1]; x1 = 0.7): 795.69 ± 0.29 kg/m3
mass density ([1]; x1 = 0.7955): 813.15 ± 0.28 kg/m3
mass density ([1]; x1 = 0.8999): 834.62 ± 0.26 kg/m3
mass density ([1]; x1 = 1): 858.2 ± 0.23 kg/m3

Nc1ccccc1 [aniline] + NC1CCCCC1
mass density ([1]; x2 = 0): 1012.94 ± 0.27 kg/m3

Cc1ccccc1 [toluene]
refractive index ([2]; 293.15 K): 1.496 ± 0.0004
mass density ([3]; 293.15 K): 866.78 ± 0.19 kg/m3
vapor or sublimation pressure ([3]; 333.15 K): 18.56 ± 0.56 kPa
vapor or sublimation pressure ([3]; 363.15 K): 54.49 ± 0.72 kPa

CCCCCCCCCC [decane] + NC1CCCCC1
mass density ([1]; x2 = 0): 722.54 ± 0.38 kg/m3

CCCCCCCCCCC [undecane] + NC1CCCCC1
mass density ([1]; x2 = 0): 732.93 ± 0.36 kg/m3
mass density ([1]; x2 = 0.1): 738.82 ± 0.35 kg/m3
mass density ([1]; x2 = 0.2172): 747 ± 0.34 kg/m3
mass density ([1]; x2 = 0.3066): 754.16 ± 0.34 kg/m3
mass density ([1]; x2 = 0.4011): 762.69 ± 0.33 kg/m3
mass density ([1]; x2 = 0.5005): 772.99 ± 0.32 kg/m3
mass density ([1]; x2 = 0.5997): 784.83 ± 0.3 kg/m3
mass density ([1]; x2 = 0.7005): 798.79 ± 0.29 kg/m3
mass density ([1]; x2 = 0.7998): 814.98 ± 0.27 kg/m3
mass density ([1]; x2 = 0.8998): 834.57 ± 0.26 kg/m3

NC1CCCCC1 [cyclohexylamine] + CCCCCCCCCCC
mass density ([1]; x1 = 1): 858.2 ± 0.23 kg/m3

NC1CCCCC1 [cyclohexylamine] + CCCCCCCCCC
mass density ([1]; x1 = 0.1004): 729.74 ± 0.37 kg/m3
mass density ([1]; x1 = 0.2003): 737.86 ± 0.36 kg/m3
mass density ([1]; x1 = 0.3002): 746.97 ± 0.35 kg/m3
mass density ([1]; x1 = 0.3994): 757.29 ± 0.34 kg/m3
mass density ([1]; x1 = 0.4998): 768.9 ± 0.32 kg/m3
mass density ([1]; x1 = 0.5996): 782.09 ± 0.31 kg/m3
mass density ([1]; x1 = 0.6996): 797.14 ± 0.29 kg/m3
mass density ([1]; x1 = 0.8002): 814.52 ± 0.28 kg/m3
mass density ([1]; x1 = 0.9006): 834.67 ± 0.26 kg/m3
mass density ([1]; x1 = 1): 858.2 ± 0.23 kg/m3

NC1CCCCC1 [cyclohexylamine] + O
mass density ([1]; x1 = 0.1002): 956.7 ± 0.15 kg/m3
mass density ([1]; x1 = 0.197): 935.34 ± 0.16 kg/m3
mass density ([1]; x1 = 0.2237): 930.93 ± 0.16 kg/m3
mass density ([1]; x1 = 0.3021): 919.43 ± 0.17 kg/m3
mass density ([1]; x1 = 0.397): 908.71 ± 0.18 kg/m3
mass density ([1]; x1 = 0.5016): 897.85 ± 0.19 kg/m3
mass density ([1]; x1 = 0.6037): 888.39 ± 0.2 kg/m3
mass density ([1]; x1 = 0.6931): 880.7 ± 0.21 kg/m3
mass density ([1]; x1 = 0.7801): 873.76 ± 0.21 kg/m3
mass density ([1]; x1 = 0.9004): 864.97 ± 0.22 kg/m3
mass density ([1]; x1 = 1): 858.2 ± 0.23 kg/m3

CCc1ccccc1 [ethylbenzene]
refractive index ([2]; 293.15 K): 1.496 ± 0.0004
mass density ([3]; 298.15 K): 862.59 ± 0.19 kg/m3

CCCCCCCCCC [decane]
refractive index ([2]; 298.15 K): 1.4092 ± 0.0004
mass density ([3]; 298.15 K): 726.55 ± 0.38 kg/m3
mass density ([3]; 303.15 K): 722.54 ± 0.38 kg/m3

NC1CCCCC1 [cyclohexylamine]
refractive index ([2]; 288.15 K): 1.4624 ± 0.0005
mass density ([3]; 303.15 K): 858.2 ± 0.18 kg/m3
vapor or sublimation pressure ([3]; 333.15 K): 7.51 ± 0.5 kPa
vapor or sublimation pressure ([3]; 363.15 K): 25.59 ± 0.58 kPa

NC1CCCCC1 [cyclohexylamine] + CCCCCCC
mass density ([1]; x1 = 0.1009): 689.34 ± 0.43 kg/m3
mass density ([1]; x1 = 0.1999): 703.99 ± 0.41 kg/m3
mass density ([1]; x1 = 0.3006): 719.71 ± 0.39 kg/m3
mass density ([1]; x1 = 0.3983): 735.92 ± 0.37 kg/m3
mass density ([1]; x1 = 0.5): 753.83 ± 0.35 kg/m3
mass density ([1]; x1 = 0.5999): 772.37 ± 0.33 kg/m3
mass density ([1]; x1 = 0.6989): 791.79 ± 0.31 kg/m3
mass density ([1]; x1 = 0.7996): 812.68 ± 0.28 kg/m3
mass density ([1]; x1 = 0.8993): 834.6 ± 0.26 kg/m3
mass density ([1]; x1 = 1): 858.2 ± 0.23 kg/m3

CCCCCCCCCCC [undecane]
refractive index ([2]; 293.15 K): 1.4162 ± 0.0004
mass density ([3]; 293.15 K): 740.11 ± 0.28 kg/m3 and 740.11 ± 0.36 kg/m3
mass density ([3]; 303.15 K): 732.93 ± 0.36 kg/m3

O [water]
refractive index ([2]; 293.15 K): 1.3336 ± 0.0004

CCCCCCCC [octane]
refractive index ([2]; 298.15 K): 1.3946 ± 0.0004
mass density ([3]; 298.15 K): 698.49 ± 0.39 kg/m3
mass density ([3]; 303.15 K): 694.67 ± 0.39 kg/m3

NC1CCCCC1 [cyclohexylamine] + CCc1ccccc1
activity coefficient ([4]; 353.15 K): 1.13 ± 0.07
activity coefficient ([4]; 373.15 K): 1.09 ± 0.07
activity coefficient ([4]; 393.15 K): 1.06 ± 0.06

NC1CCCCC1 [cyclohexylamine] + CCCCCCCC
mass density ([1]; x1 = 0.1036): 705.94 ± 0.38 kg/m3
mass density ([1]; x1 = 0.2003): 717.44 ± 0.37 kg/m3
mass density ([1]; x1 = 0.3006): 730.4 ± 0.36 kg/m3
mass density ([1]; x1 = 0.4085): 745.58 ± 0.34 kg/m3
mass density ([1]; x1 = 0.5001): 759.5 ± 0.33 kg/m3
mass density ([1]; x1 = 0.5991): 775.85 ± 0.31 kg/m3
mass density ([1]; x1 = 0.6998): 793.85 ± 0.29 kg/m3
mass density ([1]; x1 = 0.7503): 803.55 ± 0.28 kg/m3
mass density ([1]; x1 = 0.8018): 813.83 ± 0.27 kg/m3
mass density ([1]; x1 = 0.8502): 823.95 ± 0.27 kg/m3
mass density ([1]; x1 = 1): 858.2 ± 0.23 kg/m3
activity coefficient ([4]; 353.15 K): 1.61 ± 0.1
activity coefficient ([4]; 373.15 K): 1.5 ± 0.09
activity coefficient ([4]; 393.15 K): 1.42 ± 0.09

CCCCCCCC [octane] + NC1CCCCC1
mass density ([1]; x2 = 0): 694.67 ± 0.39 kg/m3
activity coefficient ([4]; 353.15 K): 1.36 ± 0.08
activity coefficient ([4]; 373.15 K): 1.29 ± 0.08
activity coefficient ([4]; 393.15 K): 1.2 ± 0.07

NC1CCCCC1 [cyclohexylamine] + Nc1ccccc1
mass density ([1]; x1 = 0.1161): 992.51 ± 0.25 kg/m3
mass density ([1]; x1 = 0.1936): 979.58 ± 0.23 kg/m3
mass density ([1]; x1 = 0.281): 965.35 ± 0.22 kg/m3
mass density ([1]; x1 = 0.3837): 949.2 ± 0.21 kg/m3
mass density ([1]; x1 = 0.4907): 932.82 ± 0.21 kg/m3
mass density ([1]; x1 = 0.5932): 917.38 ± 0.21 kg/m3
mass density ([1]; x1 = 0.7087): 900.24 ± 0.21 kg/m3
mass density ([1]; x1 = 0.7738): 890.69 ± 0.21 kg/m3
mass density ([1]; x1 = 0.8759): 875.75 ± 0.22 kg/m3
mass density ([1]; x1 = 1): 858.2 ± 0.23 kg/m3
activity coefficient ([4]; 383.15 K): 0.84 ± 0.05
activity coefficient ([4]; 393.15 K): 0.94 ± 0.06
activity coefficient ([4]; 403.15 K): 1.03 ± 0.06

NC1CCCCC1 [cyclohexylamine] + Cc1ccccc1
activity coefficient ([4]; 353.15 K): 1.19 ± 0.07
activity coefficient ([4]; 373.15 K): 1.12 ± 0.07

CCCCCCC [heptane] + NC1CCCCC1
mass density ([1]; x2 = 0): 675.32 ± 0.44 kg/m3

CCCCCCCCC [nonane] + NC1CCCCC1
mass density ([1]; x2 = 0): 710.05 ± 0.38 kg/m3

Cc1ccccc1 [toluene] + NC1CCCCC1
activity coefficient ([4]; 353.15 K): 1.14 ± 0.07
activity coefficient ([4]; 373.15 K): 1.13 ± 0.07
activity coefficient ([4]; 393.15 K): 1.06 ± 0.06

CCc1ccccc1 [ethylbenzene] + NC1CCCCC1
activity coefficient ([4]; 353.15 K): 1.18 ± 0.07
activity coefficient ([4]; 373.15 K): 1.16 ± 0.07
activity coefficient ([4]; 393.15 K): 1.13 ± 0.07
